Data on 21 molecules can be found in patent US20050239853A1, “New compounds” (priority 2004, published 2005).

Series [1] has as its target T1, human 11-β-hydroxysteroid dehydrogenase type-1 enzyme (11-β-HSD1) (Homo sapiens, UniProt P28845).
T1 construct: made in house; host or cells: Pichia pastoris
Put plainly: Scintillation Proximity Assay (11-β-HSD1 enzyme assay). In kind it is biochemical. To be noted: calculated from IC50 (Cheng Prushoff); tritiated Cortisone/NADPH 175 nM/181 μM; enzyme expressed in Pichia pastoris. An excerpt:
Scintillation Proximity Assay
[1,2(n)-^3H]-cortisone was purchased from Amersham Pharmacia Biotech. Anti-cortisol monoclonal mouse antibody, clone 6D6.7 was obtained from Immunotech and Scintillation proximity assay (SPA) beads coated with monoclonal antimouse antibodies were from Amersham Pharmacia Biotech. NADPH, tetrasodium salt was from Calbiochem and glucose-6-phosphate (G-6-P) was supplied by Sigma. The human 11-β-hydroxysteroid dehydrogenase type-1 enzyme (11-β-HSD1) was expressed in Pichia pastoris. 18-β-glycyrrhetinic acid (GA) was obtained from Sigma. The serial dilutions of the compounds were performed on a Tecan Genesis RSP 150. Compounds to be tested were dissolved in DMSO (1 mM) and diluted in 50 mM Tris-HCl, pH 7.2 containing 1 mM EDTA.
The multiplication of plates was done on a WallacQuadra. The amount of the product [^3H]-cortisol, bound to the beads was determined in a Packard, Top Count microplate liquid scintillation counter.
The 11-β-HSD1 enzyme assay was carried out in 96 well microtiter plates (Packard, Optiplate) in a total well volume of 220 μL and contained 30 mM Tris-HCl, pH 7.2 with 1 mM EDTA, a substrate mixture tritiated Cortisone/NADPH (175 nM/181 μM), G-6-P (1 mM) and inhibitors in serial dilutions (9 to 0.15 μM). Reactions were initiated by the addition of human 11-β-HSD1, either as Pichia pastoris cell homogenate or microsomes prepared from Pichia pastoris (the final amount of enzyme used was varied between 0.057 to 0.11 mg/mL). Following mixing, the plates were shaken for 30 to 45 minutes at room temperature. The reactions were terminated with 10 μL 1 mM GA stop solution. Monoclonal mouse antibody was then added (10 μL of 4 μM) followed by 100 μL of SPA beads (suspended according to the manufacturers instructions). Appropriate controls were set up by omitting the 11-β-HSD1 to obtain the non-specific binding (NSB) value.
The plates were covered with plastic film and incubated on a shaker for 30 minutes, at room temperature, before counting. The amount of [^3H]-cortisol, bound to the beads was determined in a microplate liquid scintillation counter. The calculation of the Ki values for the inhibitors was performed by use of Activity Base. The Ki value is calculated from IC50 and the Km value is calculated using the Cheng Prushoff equation (with reversible inhibition that follows the Michaelis-Menten equation): Ki=IC50(1+[S]/Km) [Cheng, Y. C.; Prushoff, W. H. Biochem. Pharmacol. 1973, 22, 3099-3108]. The IC50 is measured experimentally in an assay wherein the decrease of the turnover of cortisone to cortisol is dependent on the inhibition potential of each substance. The Ki values of the compounds of the present invention for the 11-β-HSD1 enzyme lie typically between about 10 nM and about 10 μM.

Molecules are shown by their SMILES. Where a name gives a salt, the structure may show the parent alone.

As usually defined, the Ki is a dissociation constant, usually derived from enzyme kinetics or from competition with a known ligand. As a reminder, the melting point is the temperature of the solid-liquid transition.

T1 sequence (P28845 whole entry): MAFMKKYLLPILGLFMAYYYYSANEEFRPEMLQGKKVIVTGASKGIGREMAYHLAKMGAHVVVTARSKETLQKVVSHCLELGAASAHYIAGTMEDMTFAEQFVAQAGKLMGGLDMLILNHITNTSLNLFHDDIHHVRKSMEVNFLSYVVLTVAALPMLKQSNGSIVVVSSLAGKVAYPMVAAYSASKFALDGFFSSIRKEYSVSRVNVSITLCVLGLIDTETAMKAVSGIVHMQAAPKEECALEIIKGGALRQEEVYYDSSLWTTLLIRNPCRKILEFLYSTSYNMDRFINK

Regarding `O=C(NCCC1SC(NC2CCCCCC2)=NC1=O)Nc1ccccc1Cl` (stereo not drawn) [Example 261, N-(2-chlorophenyl)-N′-{2-[2-(cycloheptylamino)-4-oxo-4,5-dihydro-1,3-thiazol-5-yl]ethyl}urea], in series [1], the Ki was 559 nM.

For `O=C(CC1SC(NC2CC3C=CC2C3)=NC1=O)Nc1cccc(C(=O)O)c1` (stereo not drawn) [Example 103, 3-({[2-(Bicyclo[2.2.1]hept-5-en-2-ylamino)-4-oxo-4,5-dihydro-1,3-thiazol-5-yl]acetyl}amino)benzoic acid], the melting point is 242 °C.

Molecule `O=C(CC1SC(NC2CC3C=CC2C3)=NC1=O)Oc1cccc(N2CCOCC2)c1` (stereo not drawn) [Example 282, 3-Morpholin-4-ylphenyl [2-(bicyclo[2.2.1]hept-5-en-2-ylamino)-4-oxo-4,5-dihydro-1,3-thiazol-5-yl]acetate] returned a melting point of 203 to 204 °C. Same read-out and setting: the same measure for `O=C(CC1SC(NC2CC3C=CC2C3)=NC1=O)Nc1ccc2cn[nH]c2c1` (stereo not drawn) [Example 100, 2-[2-(Bicyclo[2.2.1]hept-5-en-2-ylamino)-4-oxo-4,5-dihydro-1,3-thiazol-5-yl]-N-1H-indazol-6-ylacetamide]: 222 to 223 °C; for `O=C(CC1SC(NC2CC3C=CC2C3)=NC1=O)NCc1ccccc1` (stereo not drawn) [Example 74, N-Benzyl-2-[2-(bicyclo[2.2.1]hept-5-en-2-ylamino)-4-oxo-4,5-dihydro-1,3-thiazol-5-yl]acetamide]: 206 to 207 °C; for `O=C(CC1SC(NC2CC3C=CC2C3)=NC1=O)Oc1ccccc1Cl` (stereo not drawn) [Example 279, 2-Chlorophenyl [2-(bicyclo[2.2.1]hept-5-en-2-ylamino)-4-oxo-4,5-dihydro-1,3-thiazol-5-yl]acetate]: 211 °C. As to `O=C(CC1SC(NC2CC3C=CC2C3)=NC1=O)c1ccc(Cl)cc1` (stereo not drawn) [Example 283, 2-(Bicyclo[2.2.1]hept-5-en-2-ylamino)-5-[2-(4-chlorophenyl)-2-oxoethyl]-1,3-thiazol-4(5H)-one], the melting point is 244 to 245 °C.

`COc1ccccc1OC(=O)CC1SC(NC2CC3C=CC2C3)=NC1=O` (stereo not drawn) [Example 281, 2-Methoxyphenyl [2-(bicyclo[2.2.1]hept-5-en-2-ylamino)-4-oxo-4,5-dihydro-1,3-thiazol-5-yl]acetate]: the melting point lay within 175 to 176 °C.

`O=C1N=C(NC2(c3ccc(Cl)cc3)CCC2)SC1CCNc1ccccc1` (stereo not drawn) [Example 335, 5-(2-anilinoethyl)-2-{[1-(4-chlorophenyl)cyclobutyl]amino}-1,3-thiazol-4(5H)-one hydrobromide]: in series [1], the Ki was 535 nM. With `O=C(CC1SC(NC2CC3C=CC2C3)=NC1=O)Nc1ccccc1` (stereo not drawn) [Example 99, 2-[2-(Bicyclo[2.2.1]hept-5-en-2-ylamino)-4-oxo-4,5-dihydro-1,3-thiazol-5-yl]-N-phenylacetamide], the melting point lay in the range of 216 to 217 °C. With `O=C(CC1SC(N2CCCCC2)=NC1=O)Nc1ccccc1Cl` (stereo not drawn) [Example 98, N-(2-Chlorophenyl)-2-(4-oxo-2-piperidin-1-yl-4,5-dihydro-1,3-thiazol-5-yl)acetamide], the melting point was determined as 177 °C. With `CCC(C)CNC1=NC(=O)C(CC(=O)N2CCCc3ccccc32)S1` (stereo not drawn) [Example 125, 5-[2-(3,4-dihydroquinolin-1(2H)-yl)-2-oxoethyl]-2-[(2-methylbutyl)amino]-1,3-thiazol-4(5H)-one], in series [1], the Ki is 384 nM. For `Cc1c(Cl)cccc1NC(=O)CC1SC(NC2CC3C=CC2C3)=NC1=O` (stereo not drawn) [Example 73, 2-[2-(Bicyclo[2.2.1]hept-5-en-2-ylamino)-4-oxo-4,5-dihydro-1,3-thiazol-5-yl]-N-(3-chloro-2-methylphenyl)acetamide], the melting point was 201 to 202 °C. As to `O=C(CC1SC(NC2CCCCC2)=NC1=O)Nc1ccccc1Cl` (stereo not drawn) [Example 97, N-(2-Chlorophenyl)-2-[2-(cyclohexylamino)-4-oxo-4,5-dihydro-1,3-thiazol-5-yl]acetamide], the melting point came out at 183 °C. Still for that read-out and setting: for `O=C(CC1SC(NC2CC3C=CC2C3)=NC1=O)Nc1ccc(F)cc1` (stereo not drawn) [Example 101, 2-[2-(Bicyclo[2.2.1]hept-5-en-2-ylamino)-4-oxo-4,5-dihydro-1,3-thiazol-5-yl]-N-(4-fluorophenyl)acetamide] the value was 215 °C; for `O=C(CC1SC(NC2CC3C=CC2C3)=NC1=O)Nc1ccccc1C(=O)c1ccccc1` (stereo not drawn) [Example 102, N-(2-benzoylphenyl)-2-[2-(Bicyclo[2.2.1]hept-5-en-2-ylamino)-4-oxo-4,5-dihydro-1,3-thiazol-5-yl]acetamide], 191 to 192 °C.

`CN(C(=O)CC1SC(NC2CC3C=CC2C3)=NC1=O)c1ccccc1Cl` (stereo not drawn) [Example 107, 2-[2-(Bicyclo[2.2.1]hept-5-en-2-ylamino)-4-oxo-4,5-dihydro-1,3-thiazol-5-yl]-N-(2-chlorophenyl)-N-methylacetamide] displayed a melting point of 149 to 150 °C.

For the molecule `Cc1c(Cl)cccc1NC1=NC(=O)C(CC(=O)N(C)c2ccccc2)S1` (stereo not drawn) [Example 109, 2-{2-[(3-chloro-2-methylphenyl)amino]-4-oxo-4,5-dihydro-1,3-thiazol-5-yl}-N-methyl-N-phenylacetamide], the Ki in series [1] was 709 nM. In the case of `O=C(O)CC1SC(NC2CC3C=CC2C3)=NC1=O` (stereo not drawn) [Example 288, [2-(Bicyclo[2.2.1]hept-5-en-2-ylamino)-4-oxo4,5-dihydro-1,3-thiazol-5-yl]acetic acid], the melting point was determined as 232 °C. With `CNC(=O)CC1SC(NC2CC3C=CC2C3)=NC1=O` (stereo not drawn) [Example 105, 2-[2-(Bicyclo[2.2.1]hept-5-en-2-ylamino)-4-oxo-4,5-dihydro-1,3-thiazol-5-yl]-N-methylacetamide], the melting point stood at 205 °C. Same read-out and setting: the same measure for `CCNC(=O)CC1SC(NC2CC3C=CC2C3)=NC1=O` (stereo not drawn) [Example 104, 2-[2-(Bicyclo[2.2.1]hept-5-en-2-ylamino)-4-oxo-4,5-dihydro-1,3-thiazol-5-yl]-N-ethylacetamide]: 187 to 188 °C.
